In one experiment the target is Cruzipain (Trypanosoma cruzi, UniProt P25779). Put plainly: Inhibitory concentration against cruzain of Trypanosoma cruzi.
A further experiment concerns the target Rhodesain (Trypanosoma brucei rhodesiense, UniProt Q95PM0). In words: Inhibitory concentration against rhodesain of Trypanosoma brucei rhodesience.
The target in another experiment is T1, Falcipain 2 (Plasmodium falciparum, UniProt Q9N6S8).
T1 sequence (Q9N6S8 whole entry): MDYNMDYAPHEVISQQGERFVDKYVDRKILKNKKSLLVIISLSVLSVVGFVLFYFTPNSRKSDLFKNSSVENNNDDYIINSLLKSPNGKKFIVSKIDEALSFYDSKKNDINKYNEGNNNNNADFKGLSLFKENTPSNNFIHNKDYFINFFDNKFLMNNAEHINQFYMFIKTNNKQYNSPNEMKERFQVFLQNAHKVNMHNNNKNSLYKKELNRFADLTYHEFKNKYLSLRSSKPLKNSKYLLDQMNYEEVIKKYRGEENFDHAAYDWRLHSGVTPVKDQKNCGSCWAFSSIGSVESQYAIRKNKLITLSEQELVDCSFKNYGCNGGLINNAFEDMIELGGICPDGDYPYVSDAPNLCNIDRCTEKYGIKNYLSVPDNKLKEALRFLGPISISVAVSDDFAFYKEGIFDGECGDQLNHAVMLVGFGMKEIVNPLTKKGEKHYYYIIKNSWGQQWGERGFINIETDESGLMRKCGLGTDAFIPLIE
Put plainly: Inhibitory concentration against falcipain-2 of Plasmodium falciparum W2.

The subject of experiment [1] is Trypanosoma brucei rhodesiense. In words: Effective dose to inhibit proliferation of Trypanosoma brucei rhodesiense in cell assay. The conditions noted are these: read-out: ED50 (the source's name). It is filed as functional.
In the next experiment the test system is Trypanosoma cruzi. Put plainly: Effective dose to inhibit proliferation of Trypanosoma cruzi in cell assay. It is filed as functional. The following applies: read-out: ED50 (the source's name).
Experiment [2] relates to Plasmodium falciparum. In words: Effective dose against Plasmodium falciparum W2. The format is functional. The conditions noted are these: read-out: ED50 (the source's name).
Experiment [3] deals with Plasmodium falciparum. In words: Effective dose against Plasmodium falciparum W2; Not active. The following applies: read-out: ED50 (the source's name). It is filed as functional.

Among the data in ChEMBL document CHEMBL1144459, “Discovery of potent thiosemicarbazone inhibitors of rhodesain and cruzain” (Bioorg Med Chem Lett, 2005) are IC50 and EC50 values, retold here.

Molecules are shown by their SMILES. pEC50, pIC50: −log10 of the molar value.

Sequence of Cruzipain (P25779 whole entry): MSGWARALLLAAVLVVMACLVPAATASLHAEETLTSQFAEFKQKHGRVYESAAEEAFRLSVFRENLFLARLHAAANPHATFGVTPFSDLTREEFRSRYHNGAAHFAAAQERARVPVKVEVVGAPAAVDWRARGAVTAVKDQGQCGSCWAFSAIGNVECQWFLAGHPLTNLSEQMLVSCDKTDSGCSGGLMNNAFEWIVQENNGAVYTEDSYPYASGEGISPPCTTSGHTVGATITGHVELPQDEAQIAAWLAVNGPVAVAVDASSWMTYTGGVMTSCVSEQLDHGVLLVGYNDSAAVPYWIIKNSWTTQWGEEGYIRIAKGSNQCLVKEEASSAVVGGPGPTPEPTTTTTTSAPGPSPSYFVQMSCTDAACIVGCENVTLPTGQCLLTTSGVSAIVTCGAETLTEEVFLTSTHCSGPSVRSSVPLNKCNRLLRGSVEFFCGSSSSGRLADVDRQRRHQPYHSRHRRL
Sequence of Rhodesain (Q95PM0 whole entry): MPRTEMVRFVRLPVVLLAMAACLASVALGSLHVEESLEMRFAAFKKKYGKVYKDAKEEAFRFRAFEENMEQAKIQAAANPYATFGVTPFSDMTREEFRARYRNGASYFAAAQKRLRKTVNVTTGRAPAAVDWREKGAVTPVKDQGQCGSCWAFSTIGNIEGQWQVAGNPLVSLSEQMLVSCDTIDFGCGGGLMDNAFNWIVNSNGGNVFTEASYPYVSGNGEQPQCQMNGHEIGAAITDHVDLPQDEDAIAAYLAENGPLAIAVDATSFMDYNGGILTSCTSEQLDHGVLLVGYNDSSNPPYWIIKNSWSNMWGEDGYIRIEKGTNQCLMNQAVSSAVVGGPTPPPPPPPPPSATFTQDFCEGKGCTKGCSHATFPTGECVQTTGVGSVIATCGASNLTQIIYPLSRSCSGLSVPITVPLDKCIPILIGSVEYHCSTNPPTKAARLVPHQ

One may read the pIC50 as the negative decadic logarithm of the IC50, by convention in mol/L. A low value points to a large IC50. Take `N/C(S)=N/N=C(\CCc1ccccc1)c1ccc(Cl)c(Cl)c1`: the pIC50 at Cruzipain is 7.40; against Rhodesain, 7.05; against Falcipain 2 it was 5.59. The pEC50 in experiment [1] is 7.16.

As for `N/C(S)=N/N=C(/c1ccc(Cl)c(Cl)c1)C1CCCCC1`, the pIC50 against Cruzipain is 5.52; against Rhodesain, 5.96; at Falcipain 2, 4.85.

Take `CC/C(=N\N=C(\N)S)c1ccc(Cl)c(Cl)c1`: the pIC50 was 7.52 at Cruzipain and 6.96 at Rhodesain.

Take `CCCC/C(=N\NC(N)=S)c1ccc(Cl)c(Cl)c1`: the pIC50 at Cruzipain is 7.72; against Rhodesain it was 7.22; against Falcipain 2, 6.21. For the same molecule, the values for the pEC50 (in experiment [1]; with Trypanosoma cruzi) were 6.89 and 5.52, respectively.

In the case of `Cc1ccc(/C(=N\N=C(\N)S)c2ccc(Cl)c(Cl)c2)cc1`, the figures for the pIC50 on Cruzipain, against Rhodesain and at Falcipain 2 were 7.40, 7.42 and 5.74, respectively.

Turning to `N/C(S)=N/N=C(\Cc1ccccc1)c1ccc(Cl)c(Cl)c1`, the results for the pIC50 on Cruzipain, against Rhodesain and against Falcipain 2 were 7.10, 7.10 and 5.08, respectively. Moreover, the pEC50 in the experiment on Plasmodium falciparum [2] was 4.72.

On to `CC/C(=N\NC(N)=S)c1cccc(Br)c1`, for which, at Rhodesain, the pIC50 was 6.64.

In the case of `N/C(S)=N/N=C(\COc1ccccc1)c1ccc(Cl)c(Cl)c1`, the pIC50 is 7.52 against Cruzipain, 7.15 against Rhodesain and 6.43 at Falcipain 2. Besides, in experiment [1], the pEC50 is 5.82.

In the case of `CC(C)(C)/C(=N\N=C(\N)S)c1ccc(Cl)c(Cl)c1`, the figures for the pIC50 on Cruzipain and against Rhodesain were less than 5.00 and 5.48, respectively.

For the molecule `N/C(S)=N/N=C(\C=C\c1ccccc1)c1ccc(Cl)c(Cl)c1`, the pIC50 on Cruzipain was 7.52; against Rhodesain, 7.42; on Falcipain 2 it was 6.33. In addition, the pEC50 with Plasmodium falciparum [3] is 5.05; in experiment [1], 7.14.

With `N/C(S)=N/N=C(/c1ccc(Cl)c(Cl)c1)C1CC1c1ccccc1` (configuration not stated), the values for the pIC50 on Cruzipain, against Rhodesain and against Falcipain 2 were 7.52, 7.22 and 6.19, respectively. In addition, the pEC50 in experiment [1] is 6.24.
